This is an account of results in the NIST ThermoML archive (doi:10.1016/j.tca.2019.03.026).

Numbers after ± are expanded uncertainties.

The nature of data set [1]: Molar enthalpy of transition or fusion. The conditions noted are these: DSC.
For data set [2] the following is noted: for Normal melting temperature: DTA.

Consider `Cc1ccc(C)c(OCCCC(C)(C)C(=O)O)c1` [gemfibrozil], for which the “Molar enthalpy of transition or fusion” value in data set [1] (Crystal) stood at 6.76 ± 0.454 kcal/mol; in data set [1] (Metastable crystal), 6.19 ± 0.502 kcal/mol. The Normal melting temperature was found to be 59.00 ± 0.4 °C in data set [2] (Crystal) and 58.00 ± 0.4 °C in data set [2] (Metastable crystal). The Glass transition temperature in data set [2] (Glass, DSC) is -32.00 ± 1 °C.
